# Laboratory results published in patent US10689398B2, “OXA-Diazaspiro compounds having activity against pain” (ESTEVE PHARMACEUTICALS, S.A., priority 2015, dated 2020).
# Target: human σ1 receptor (Homo sapiens (Human), UniProt Q99720)
# Experiment: Human σ1 receptor radioligand assay
# Format: binding
# Conditions: transfected HEK-293 membranes, [3H](+)-pentazocine radioligand
# Procedure, shortened: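 Membranes from HEK-293 cells transfected with human σ1 receptor (7 μg) incubated with 5 nM [3H](+)-pentazocine in 50 mM Tris-HCl pH 8, 120 min at 37° C. Non-specific binding defined with 10 μM haloperidol. Bound radioligand separated by filtration, washed with ice-cold 10 mM Tris-HCl pH 7.4, and counted by scintillation.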
# Chain of human σ1 receptor (Q99720 whole entry): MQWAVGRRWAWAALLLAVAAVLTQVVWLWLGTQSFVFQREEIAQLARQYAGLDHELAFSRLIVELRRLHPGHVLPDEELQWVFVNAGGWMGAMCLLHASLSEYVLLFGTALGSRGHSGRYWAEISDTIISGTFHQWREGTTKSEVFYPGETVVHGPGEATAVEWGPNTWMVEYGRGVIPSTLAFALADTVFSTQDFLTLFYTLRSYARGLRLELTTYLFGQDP
row,SMILES,Ki [µM]
1,"CCN1CC(C)(C)OC2(CCCN(CCC(C)C)CC2)C1 (centres unmarked) [Example 88, 4-ethyl-9-isopentyl-2,2-dimethyl-1-oxa-4,9-diazaspiro[5.6]dodecane]",< 0.1
2,"CCN1CC(C)(C)OC2(CCCN(CC(C)C)CC2)C1 (centres unmarked) [Example 89, 4-ethyl-9-isobutyl-2,2-dimethyl-1-oxa-4,9-diazaspiro[5.6]dodecane]",< 0.1
3,"c1ccc(CCN2CC3(CN(Cc4ccccc4)CC4(CC4)O3)C2)cc1 [Example 90, 10-benzyl-7-phenethyl-4-oxa-7,10-diazadispiro[2.1.3.3]undecane]",< 0.1
4,"O=C(c1ccccc1)N1CC2(CC2)OC2(CN(CCc3ccccc3)C2)C1 [Example 91, (7-Phenethyl-4-oxa-7,10-diazadispiro[2.1.3.3]undecan-10-yl)(phenyl)methanone]",≥ 0.5
5,"CCN1C[C@]2(CCCN(Cc3ccccc3)CC2)OC2(CC2)C1=O [Example 92, (R)-8-benzyl-13-ethyl-4-oxa-8,13-diazadispiro[2.1.6.3]tetradecan-14-one]",< 0.1
6,"CCN1C[C@@]2(CCCN(Cc3ccccc3)CC2)OC2(CC2)C1=O [Example 93, (S)-8-benzyl-13-ethyl-4-oxa-8,13-diazadispiro[2.1.6.3]tetradecan-14-one]",< 0.1
7,"CC1(C)CN(C(=O)c2ccccc2)C[C@]2(CCCN(CCc3ccccc3)CC2)O1 [Example 94, (R)-(2,2-dimethyl-9-phenethyl-1-oxa-4,9-diazaspiro[5.6]dodecan-4-yl)(phenyl)methanone]",< 0.5
8,"CC1(C)CN(C(=O)c2ccccc2)C[C@@]2(CCCN(CCc3ccccc3)CC2)O1 [Example 95, (S)-(2,2-dimethyl-9-phenethyl-1-oxa-4,9-diazaspiro[5.6]dodecan-4-yl)(phenyl)methanone]",< 0.5
